Data reported in patent publication US20150150893A1, “ANDROGRAPHOLIDE ANALOGS AND THEIR USE FOR MEDICATION” (LIAONING LIFENG SCIENTIFIC & TECHNOLOGY DEVELOPMENT COMPANY …, priority 2012, published 2015).
Read-outs that look alike come from different tables or passages of the source.

What was measured:
Format in all cases: cell-based
many virus = assay: Antivirus studies in vitro, summary over the virus panel; details: read-out: EC50 against many virus
Method: compounds were diluted to 20 mg/mL in DMSO then prepared in for log 10 dilutions of 100 μg/mL down to 0.1 μg/mL) in MEM solution with 50 μg/mL gentamicin and 2% FBS. Each dilution was added to 5 wells of a 96-well plate with 80-100% confluent cells. Three wells of each dilution were infected with virus, and two wells remained uninfected as toxicity controls. The multiplicity of infection (MOI) was as low as possible to achieve CPE within 3-5 days of incubation. A known active compound was tested in parallel as a control. After untreated virus control wells reached maximum cytopathic effect (CPE), each well was scored microscopically. Plates were then stained with neutral red dye for approximately 2 hours, then supernatant dye was removed from the wells and the incorporated dye was extracted in 50:50 Sorensen citrate buffer/ethanol, then the optical density was read on a spectrophotometer.

SARS coronavirus = assay: microbe, parasite or virus in culture; details: Severe acute respiratory syndrome coronavirus
Influenza A virus H1N1 = assay: microbe, parasite or virus in culture; details: H1N1, read-out: In-Vitro Antiviral Screening Result (EC50) H
[1] = system: Japanese encepahalitis virus; details: read-out: In-Vitro Antiviral Screening Result (EC50) C
[2] = system: Venezuelan equine encephalitis virus; assay: microbe, parasite or virus in culture; details: read-out: In-Vitro Antiviral Screening Result (EC50) G
Rift Valley fever virus = assay: microbe, parasite or virus in culture
[3] = read-out: In-Vitro Antiviral Screening Result (EC50) F
[4] = read-out: In-Vitro Antiviral Screening Result (EC50) E

Row | Structure (SMILES) | EC50 (many virus) [µg/mL] | EC50 (SARS coronavirus; [3]) [µg/mL] | EC50 (Influenza A virus H1N1) [µg/mL] | EC50 [1] [µg/mL] | EC50 [2] [µg/mL] | EC50 (Rift Valley fever virus; [4]) [µg/mL] | EC50 (SARS coronavirus; read-out: EC50 against virus F) [µg/mL] | EC50 (Rift Valley fever virus; read-out: EC50 against virus E) [µg/mL]
1 | CC(NC1CC2[C@](C)(CC[C@@H](O)[C@@]2(C)CO)C(/C=C/C2=CC(=C\c3cnc(N4CCN(C)CC4)nc3)/OC2=O)C12CO2)C(=O)NC1=NCC=N1 (stereo partly shown) [Example 23, 7-((2-((4H-imidazol-2-yl)amino)-1-oxopropan-2-yl)amino)-11,12-dedihydro-14-deoxy-(E)-15-((2-(4-methylpiperazin-1-yl)pyrimidin-5-yl)methylene)-8,17-epoxyandrographolide] | < 50 | < 50 | > 100 | < 50 | < 50 | < 50 | – | –
2 | C=C1CCC2C(C)(CO)C(O)CCC2(C)C1/C=C/C1=CC(=C\c2ccc(Cl)cc2Cl)/OC1=O (stereo not shown) [Example 35, 11,12-dedihydro-14-deoxy-(E)-15-(2,4-dichlorobenzylidene)andrographolide] | < 50 | < 50 | < 50 | < 50 | < 50 | > 100 | – | –
3 | C=C1CCC2[C@](C)(CC[C@@H](O)[C@@]2(C)CO)C1/C=C/C1=CC(=C\c2ccc(N(C)C)cc2)/OC1=O (stereo partly shown) [Example 37, 11,12-dedihydro-14-deoxy-15-(4-(dimethylamino)benzylidene)andrographolide] | – | < 50 | < 50 | < 50 | < 50 | < 50 | < 1 | < 1
4 | C[C@]12CC[C@@H](O)[C@@](C)(CO)C1CCC1(CO1)C2/C=C/C1=CC(=C\c2cnc(N)[nH]c2=O)/OC1=O (stereo partly shown) [Example 38, 11,12-dedihydro-14-deoxy-15-(2-amino-5-oxygen-3H-pyrimidine-5-ylmethylene)-8,17-epoxyandrographolide] | < 50 | < 50 | < 100 | < 100 | < 100 | > 100 | – | –
5 | C=C1CCC2C(C)(CO)C(O)CCC2(C)C1/C=C/C1=CC(=C\c2ccc(OC3OC(CO)C(O)C(O)C3O)cc2)/OC1=O (stereo not shown) [Example 40, 11,12-dedihydro-14-deoxy-15-(4-((3,4,5-trihydroxy-6-(hydroxymethyl)tetrahydro-2H-pyran-2-yl)oxy)benzylidene)andrographolide] | < 50 | < 50 | > 100 | < 100 | > 100 | > 100 | – | –
6 | COc1cc(/C=C2C=C(/C=C/C3C4(CCC5[C@]3(C)CC[C@@H](O)[C@@]5(C)CO)CO4)C(=O)O\2)cc([N+](=O)[O-])c1O (stereo partly shown) [Example 41, 11,12-dedihydro-14-deoxy-(E)-15-(4-hydroxy-3-methoxy-5-nitrobenzylidene)-8,17-epoxyandrographolide] | < 50 | < 100 | < 100 | > 100 | > 100 | < 50 | – | –
7 | C=C1CCC2[C@](C)(CC[C@@H](O)[C@@]2(C)CO)C1/C=C/C1=CC(=C\c2ccc(N(C)C)cc2O)/OC1=O (stereo partly shown) [Example 44] | < 50 | < 50 | < 100 | > 100 | > 100 | > 100 | – | –
8 | C=C1CCC2C(C)(CO)C(O)CCC2(C)C1CC(Nc1cccc(Cl)c1)C1=CCOC1=O (stereo not shown) [Example 53, 12-((3-chlorophenyl)amino)-14-deoxyandrographolide] | – | < 50 | < 50 | < 50 | < 50 | < 10 | < 1 | < 1
9 | C=C1CCC2C(C)(CO)C(O)CCC2(C)C1CC(NC12CN3CN(CN(C3)C1)C2)C1=CCOC1=O (stereo not shown) [Example 57, 12-((1s,3s,5s)-1,3,5-triazaadamantan-7-ylamino)-14-deoxyandrographolide] | – | < 50 | < 50 | < 50 | < 50 | < 50 | < 1 | < 1
10 | C=C1C(N2CCOCC2)CC2[C@](C)(CC[C@@H](O)[C@@]2(C)CO)C1/C=C/C1=CCOC1=O (stereo partly shown) [Example 83] | – | < 50 | < 50 | < 50 | < 50 | < 50 | < 1 | < 1
